According to PMC11241262, “Unravelling the Antifibrinolytic Mechanism of Action of the 1,2,3-Triazole Derivatives” (International Journal of Molecular Sciences, 2024):
Converted amounts (≈) assume the structure as drawn.

Tests used:
in vivo = settings: both sexes, Wistar, rat, iv
Method: A MTD study was performed for compound 5 in Wistar rats and Beagle dogs. A total of 25 male and 25 female Wistar rats were received in the experimental room and acclimatized for a period of 5 days prior to randomization. The environmental and housing conditions maintained during the experiment were identical to those described in the pharmacokinetic study. At the start of dosing, rats were between 6 and 7 w.o., and their body weight varied no more than ±20% from the mean body weight for each sex. During randomization, 20 male and 20 female rats were selected for the study, which were randomly allocated to four different dose level groups: D1, D2, D3, and D4. Each group consisted of 5 male and 5 female rats. The remaining 5 male and 5 female rats were returned to the animal facility.
Dose formulations of compound 5 were administered by an intravenous bolus injection through the tail vein, using a sterile needle attached to a graduated syringe. Sterile water also served as a vehicle in the MTD assay. A fixed dose volume of 5 mL/kg b. wt. was used, and individual doses were adjusted according to the most recent recorded body weight of each rat. […]
Rats were subjected to twice-daily monitoring for clinical, mortality, and morbidity signs throughout the study. […] Body weight was recorded on days 1 (before treatment), 4, 8, 11, and 14 of the study. […]

[1] = Maximum solubility in plasmin assay; format: physicochemical; settings: Tris HCl buffer (plasmin activity assay solution), pH 7.5
[2] = Pharmacokinetic study in Wistar rats; format: in vivo; settings: for Mortality: PK2 2.5 mg/kg iv, 9 rats; for AUC / Cmax / Tmax / Vd / clearance / half-life: iv
Method: A pharmacokinetic study was performed for compound 5 in Wistar rats and Beagle dogs. For rats, a total of 35 male and 35 female rats were used for the study. At initiation of the dosing, rats were 9 to 10 weeks old and the body weight variation among rats was within ±20% of the mean body weight for each sex. […] Food and filtered water were provided ad libitum. During randomization, 30 male and 30 female rats were selected for the study and randomly allocated to the 4 different groups. The remaining 5 male and 5 female rats were returned to the animal facility. Rats were observed twice daily for morbidity, mortality, and clinical signs during the whole study period. Rats were euthanized after last blood collection time point by carbon dioxide asphyxiation. Sterile water served as a vehicle to dissolve compound 5 and the resulting formulations were administered right after preparation. Dose formulations were administered to rats via an intravenous bolus injection through the tail vein, using a sterile needle attached to a graduated syringe. A fixed volume of 5 mL/kg body weight was administered. Individual doses were adjusted based on the most recent recorded body weight of each rat. Four dose levels were selected: vehicle control (PK1), 2.5 mg/kg (PK2), 5 mg/kg (PK3), and 10 mg/kg (PK4).
Pharmacokinetic assessment of compound 5 was conducted on the day of dosing at multiple time points: 0 h (pre-dose), 5 min, 15 min, 0.5 h, 1 h, 2 h, 4 h, 6 h, 10 h, and 24 h post-dosing for PK2, PK3, and PK4 rats. At each time point, samples were only obtained from a subset of 3 rats. For the PK1 group, samples were collected at 0 h and at 24 h post-dosing. Blood samples (400 µL) were collected into heparin sodium tubes from the retro-orbital plexus under very light isoflurane anesthesia. Samples were inverted 4 to 5 times and placed on ice and then centrifuged at 3500 rpm for 15 min at 8 °C for plasma extraction. Plasma was transferred to Eppendorf tubes and stored at −70 ± 10 °C until assayed. The concentration of compound 5 was analyzed in plasma using High-Performance Liquid Chromatography. […] The mobile phase consisted of acetonitrile (A) and 2 mM ammonium Formate in Mili-Q water (B) with an isocratic elution mode. Pharmacokinetic analysis of the concentration of compound 5 in plasma was performed using the non-compartmental model of the WinNonlin® software version 8.1 at JRF. The group mean values of plasma concentration were analyzed to obtain different pharmacokinetics parameters, including Cmax (maximum peak concentration), Tmax (time of maximum peak concentration), AUC (area under the concentration–time curve, Cl (clearance), Vd (volume of distribution), Kel (elimination rate constant), and T1/2 (terminal half-life).

[3] = female, Wistar, rat, in vivo, 2.5 mg/kg
[4] = female, Wistar, rat, in vivo, 5 mg/kg
[5] = female, Wistar, rat, in vivo, 10 mg/kg
[6] = male, Wistar, rat, in vivo, 2.5 mg/kg
[7] = male, Wistar, rat, in vivo, 5 mg/kg
[8] = male, Wistar, rat, in vivo, 10 mg/kg

With `O=c1[nH]nc(-c2cn(C3CCNCC3)nn2)o1` [compound 5] the MTD at 14 days (in vivo) was 300 mg/kg, the solubility [1] was 20 mM (≈ 4720 µg/mL) and the Mortality ([2]; female) was 0 number of rats. For the same compound, the Mortality ([2]; male) was 0 number of rats, the elimination halftime ([2]; both, Wistar (rat), Beagle (dog), rat, in vivo) was 2 to 3 h and the AUC [2, 3] was 3630 ng·h/mL. It also gave a Cmax [2, 3] of 8660 ng/mL, a Tmax [2, 3] of 4.8 min and a Vd [2, 3] of 1.91 L/kg. It also gave a clearance [2, 3] of 11.5 mL/min/kg, a half-life [2, 3] of 115 min and an AUC [2, 4] of 7040 ng·h/mL. For the same compound, the Tmax [2, 4] was 4.8 min, the Vd [2, 4] was 2.03 L/kg and the clearance [2, 4] was 11.8 mL/min/kg. It also gave a half-life [2, 4] of 119 min, an AUC [2, 5] of 13600 ng·h/mL and a Tmax [2, 5] of 4.8 min. For the same compound, the Vd [2, 5] was 2.37 L/kg, the clearance [2, 5] was 12.2 mL/min/kg and the half-life [2, 5] was 134 min. For the same compound, the AUC [2, 6] was 3430 ng·h/mL, the Cmax [2, 6] was 8280 ng/mL and the Tmax [2, 6] was 4.8 min. It also gave a Vd [2, 6] of 2.52 L/kg, a clearance [2, 6] of 12.2 mL/min/kg and a half-life [2, 6] of 145 min. For the same compound, the AUC [2, 7] was 6530 ng·h/mL, the Cmax [2, 7] was 15100 ng/mL and the Tmax [2, 7] was 4.8 min. It also gave a Vd [2, 7] of 6.01 L/kg, a clearance [2, 7] of 12.7 mL/min/kg and a half-life [2, 7] of 327 min. The AUC [2, 8] was 12200 ng·h/mL, the Cmax [2, 8] was 26300 ng/mL and the Tmax [2, 8] was 4.8 min. It also gave a Vd [2, 8] of 6.65 L/kg, a clearance [2, 8] of 13.7 mL/min/kg and a half-life [2, 8] of 337 min. The Cmax ([2]; rat, in vivo, 5 mg/kg) was 16,634 and the Cmax ([2]; rat, in vivo, 10 mg/kg) was 30,839.
